This is an account of results in patent publication US6255347A (priority 1997, dated 2001).

“Also recorded” adds a separate entry of the source.

By inhibition is commonly meant the change of the read-out against control, counted positive when it falls.

One data set deals with risk of AD. The following applies: in vivo; cited from earlier work.
Data set [1] has as its system APPs secretion by NIH 3T3 cell lines. Particulars: 50 μM.
The conditions of data set [2]: cited from earlier work.
The conditions of data set [3]: cited from earlier work. This is another data set of the same source.
The subject of another data set is NIH 3T3 cells. Briefly: Foci formation assay, inhibition of PMA induced neoplastic transformation of NIH 3T3 cells. Format: cell-based. Particulars: PMA 0.02 μg/ml, 2% FBS. How it is done: (§1) NIH 3T3 cells (American Type Culture Collection, Rockville, Md.) were cultured in DMEM supplemented with 10% FBS inoculated at 10^4 cells/35 […] dish. […] PMA and ibuprofen were dissolved in DMSO and stored in 5% DMSO stock solutions that were diluted a 1000-fold with culture media prior to use. […] The media containing freshly added PMA and ibuprofen were changed every 60 hours for both the foci formation assay and PKCα analysis by Western blot.
Subsequent to washing with a tris/ saline buffer, the cells were stained with a solution of 4% aqueous Giemsa stain in phosphate buffer (pH 7.0). Foci of transformed cells were then visible by eye due to their high local density and verified by under light microscopy.

Another data set relates to cyclooxygenase. Particulars: cited from earlier work.
The subject of the next data set is PKCα. Briefly: PKCα translocation in NIH 3T3 cells (subcellular fractionation, Western blot). Format: cell-based. Particulars: 10 μg/ml. The procedure: as §1
The cells were washed twice with phosphate-buffered saline (PBS) at 37° C. and subsequently lysed and scraped in 1 ml ice-cold protein lysis buffer (20 mM Tris-HCl, pH7.4, 2 mM EGTA, 2 mM EDTA, […] leupeptin and […] aprotinin) at 4° C. […] Briefly, cells were homogenized 10× in 15 ml glass homogenizer with a tight-fitting pestle and centrifuged at 900×g for 10 min. The resulting supernatant was then centrifuged at 100,000×g for 60 min to produce a nucleus-free membrane fraction (pellet) and a cytosol fraction (supernatant) for Western blots. The 900×g nuclear pellet was suspended in the 2 ml lysis buffer containing 10% sucrose and 0.1% Triton X-100 and washed twice by centrifuging at 1000×g for 10 min, then resuspended in 1 ml of the same buffer without Triton X-100 for Western blots. The purity of the fractions was monitored by light microscopy. […] The samples were stored at -70° C. until analysis.
15 μl of human plasma, 15 μl of rat plasma, CSF or 50 μg of rat brain protein were denatured with 35 μl of sample buffer at 95° C. for 4 min. Denatured proteins were separated by 10% SDS-polyacrylamide gel electrophoresis with a 50 μg or 20 μg protein load for each sample for APPs or PKC, respectively, and electrophoretically transferred from gel to nitrocellulose membrane. […] The immunoreactive bands were developed using enhanced chemilumenescence (ECL. Amersham Life Sci., Little Chalfont, UK), following extensive washing with the blocking buffer. The PKC bands were verified in each case by competitively blocking the signal with the peptide corresponding to each of PKCs. The bands were quantitated by scanning densitometry. Quantitative comparisons were made between samples processed simultaneously on one blot.
Background: A western blot detects proteins with antibodies after separation by electrophoresis.

A short description of data set [4]: Chiral inversion of R- to S-ibuprofen in culture (HPLC). Format: in vitro ADME. The following applies: NIH 3T3 culture. How it is done: The concentration of the enantiomers of ibuprofen in cell culture media was determined by an HPLC procedure previously described for the enantiomers of ketoprofen (Grubb et al., 1996). The HPLC column consisted of a 5 μm (S,S)-Whelk-O1 stationary phase (250 mm×4.6 mm; Regis Technologies, Morton Grove, Ill.) eluted with a mobile phase of hexane/isopropyl alcohol/acetic acid (98/2/0.05) flowing at 0.8 ml/ min. […] Quantitation was achieved using peak area ratios with R-flurbiprofen as internal standard and ultraviolet absorbance at 254 nm. The limit of quantitation was set at 100 ng/ml.

The next data set relates to rat stomach and duodenum. The data set is described as follows: Gastric ulcer index / gastroduodenal lesions in rat. The class given is in vivo. The following applies: rat, in vivo. The procedure: Male Sprague-Dawley rats (12 month) were obtained from Harlan-Sprague-Dawley, Inc. (Indianapolis, Ind.) and housed under controlled conditions of temperature humidity and light/dark cycle. […] Rat blood, brain and 50 μl of cerebrospinal fluid were collected and stored at -70° C. for APPs and PKC analysis by Western blotting. Rat stomach and duodenum were collected for the quantitation of gastroduodenal lesions.
The rat stomach and first 12 cm of the duodenum were opened and carefully shed with saline to remove any residual debris and fixed in 10% buffered formaldehyde. Tissues were examined macroscopically (×10) for lesions and hemorrhages. The evaluation of lesions or hemorrhages was based on the ulcer index (UI) reported by Leyck et al. (1985) and expressed as the sum total of lesions per treatment. The scoring units used ranged from 0 to 5, where zero represents no macroscopically visible lesions; 1 represents one to three small ulcers less than 4 mm; 2 represents more than three small ulcers; 3 represents ulcer hemorrhages with several small ulcers; 4 represents large (>4 mm) ulcers; 5 indicates tissue perforation.

A further data set has as its target T1, PKC (Rattus norvegicus, UniProt P05696).
T1 construct: Partially purified PKCα from rat brain; purchased Promega (Madison, Wis.); host or cells: rat brain (tissue enzyme, partially purified)
The data set is described as follows: Protein kinase C activity assay (histone phosphorylation, partially purified rat brain PKC). Particulars: PMA stimulated. Format: biochemical. The procedure:
The following were obtained from the Sigma Chemical Co. (St. […] Anti-PKCα antibody (affinity purified) and its C-terminal region peptide was obtained from Life Technologies (Gaithersburg, Md.). […] All other chemicals were of the highest available purity and were obtained from standard commercial sources. […] Following 2 min initial incubation at 30° C., kinase reactions were initiated by the addition of ^32 P-γ-ATP and enzyme and continued at 30° C. for 2 min. Control incubations contained all assay components except enzyme and ibuprofen. […] All samples were carried out in duplicate.

The next data set relates to animal tumors. The following applies: in vivo; cited from earlier work.
Another data set relates to APP. Particulars: via activation of PKC; cited from earlier work.

Turning to `CC(=O)Oc1ccccc1C(=O)O` [Aspirin], the “association with decreased risk of AD” value in the data set on risk of AD was “not associated”. In [1] (20 h), the “APPs secretion (in words)” value is given as “failed to show an increased secretion of APPs”. In addition, the “Density of APPs band” value in data set [1] (20 h culture, n = 2, mean ± S.D.) is on record as 2.92 ± 0.43.
In the case of `O=NN(CCCl)C(=O)NCCCl` [Carmustine, 1,3-bis (2-chloroethyl)-1-nitrosourea], the “solubility (in words)” value in [2] (solvent) is “highly soluble in alcohol and lipids, and poorly soluble in water”.
Turning to `O=NN(CCCl)C(=O)NC1CCCCC1` [Lomustine, 1-(2-chloro-ethyl)-3-cyclohexyl-1 nitrosourea], the ionization result in data set [2] (physiological pH) was “relatively unionized at a physiological pH”. Also, in data set [3] (15 minutes after intravenous administration), the “tissue levels compared to plasma levels” value was “comparable to plasma levels”. In addition, the “radioactivity excreted as degradation products” value in data set [3] (oral 30 mg/m^2 to 100 mg/m^2, within 24 hours) is “about half”.
Take `CC(C)Cc1ccc([C@@H](C)C(=O)O)cc1` [R-ibuprofen]: the “inhibition of foci formation, enantiomers compared to racemate” value in the data set with NIH 3T3 cells is “more pronounced than that of the racemate; also recorded: more effective than the racemic mixture”. In the data set with NIH 3T3 cells (6 weeks, ibuprofen 10 or 100 μg/ml), the “inhibition of PMA induced foci formation / neoplastic transformation” value was “dramatically decreased; also recorded: inhibit the neoplastic transformation; also recorded: substantially inhibited”. Moreover, the “capability to inhibit cyclooxygenase (in words)” value in the data set with cyclooxygenase was “very weak capability to inhibit cyclooxygenase”. Further, the “inhibition of PKCα translocation compared to antipode” value in the data set on PKCα (4 hours PMA) was “more effective than its antipode”. For the same molecule, the “inhibition of PKCα translocation from cytosol to nuclear compartments” value in the data set with PKCα (PMA 4 hours) was “clearly modulated the time dependent intracellular redistribution of PKCα”. Also, the “inhibition of PKCα translocation, racemate versus enantiomers” value with PKCα (particularly 2 weeks of PMA) is “more effective than the racemic mixture”. Also, the “inversion of R- to S-ibuprofen” value in data set [4] was “No inversion of R- to S-ibuprofen was detectable; also recorded: did not occur”. For the same molecule, in the data set with rat stomach and duodenum, the “gastric ulcers, incidence” value is “one small gastric ulcer in 2 out of 4 rats” and the “ulcers larger than 4 mm” value is given as “no ulcer larger than 4 mm”. In addition, the “concentration inhibiting PKC mediated histone phosphorylation” value on PKC (2 min, 30° C.) stood at 1 µM. Also, on PKC (read-out: maximal inhibition of PKC activity, at 20 μM), the inhibition at 20 µM amounted to 53%.
Take `CC(=O)Nc1ccc(O)cc1` [acetaminophen]: in the data set with risk of AD, the “association with decreased risk of AD” value is recorded as “not associated”.
With `N[C@H](Cc1ccc(N(CCCl)CCCl)cc1)C(=O)O` [medphalan], the “activity against certain animal tumors versus melphalan” value in the data set with animal tumors is recorded as “less active”.
On to `CCCCCCCCCCCCCC(=O)O[C@@H]1[C@@H](C)[C@@]2(O)[C@@H](C=C(CO)C[C@]3(O)C(=O)C(C)=C[C@@H]23)[C@@H]2C(C)(C)[C@]12OC(C)=O` [phorbol ester], for which, in the data set on APP, the “formation of APPs” value is “increase the formation of APPs”; the “production of amyloidogenic fragments containing Aβ and Aβ” value is given as “reduce the production”.
